# Measured values taken from publication PMC5653232 (Cell reports, 2017).
# What was measured:
# Assay type in all cases: binding
# CHD3 PHD1/2 = assay: 1H,15N HSQC NMR titration, linked CHD3 PHD1/2; conditions: 15N-labelled PHD1/2, 298 K, H3 peptides aa 1–12
# CHD3 PHD1 = CHD3 PHD1 (Homo sapiens, UniProt Q12873); assay: 1H,15N HSQC NMR titration, CHD3 PHD1; conditions: compared with unmodified H3; protein:peptide ratio 1:0.5; 298 K
# CHD3 PHD2 = CHD3 PHD2 (Homo sapiens, UniProt Q12873); assay: 1H,15N HSQC NMR titration, CHD3 PHD2; conditions: compared with unmodified H3; protein:peptide ratio 1:0.5; 298 K
# [1] = tested on: biotinylated histone peptides (residues 1–20 of H3); assay: Pull-down of GST-CHD3 PHDs with biotinylated histone H3 peptides, Western blot; conditions: blots overexposed to the same degree as PHD1/2; 2 h at 4 °C, pH 8.0
Substance,"chemical shift perturbations, linked PHD1/2 (CHD3 PHD1/2)","effect of modification on binding by NMR CSPs, PHD1 (CHD3 PHD1)","effect of modification on binding by NMR CSPs, PHD2 (CHD3 PHD2)",pull-down association of individual PHD1 and PHD2 with histone peptides [1]
H3K4me3: histone H3 peptide (aa 1–12) with the K4me3 modification,CSPs consistent with a much weaker association,strong inhibitory effects,strong inhibitory effects,–
"PHD1: PHD1 (373–427) of CHD3 (GYETDHQDYCEVCQQGGEIILCDTCPRAYHLVCLDPELDRAPEGKWSCPHCEKEG; left off: GST, end not stated, cleaved)",–,–,–,barely detectable
"PHD2: PHD2 (454–508) of CHD3 (DHMEYCRVCKDGGELLCCDACISSYHIHCLNPPLPDIPNGEWLCPRCTCPVLKGR; left off: GST, end not stated, cleaved)",–,–,–,barely detectable
